Paper PMC8067766 (International Journal of Molecular Sciences, 2021)
Where a SMILES comes first, the peptide text is derived from it.

Legend:
dorsal skin wounds [1] = assay: Wound healing in a dorsal skin excision model in mice; format: in vivo, BALB/c female mice
Source text: Eight-week-old BALB/c female mice were used for experiments. All experimental procedures were approved by the Local Ethics Committee in Bydgoszcz (Approval No. 49/2016). The mice were anesthetized with inhaled 2–5% isoflurane. The skin on the back was shaved and disinfected. The skin was folded and raised cranially and caudally along the spine. The mouse was then placed in a lateral position, and the folded skin was pierced with a 6.0 mm diameter biopsy punch, resulting in the formation of two excisional, symmetrical wounds on the back of the mouse. Before peptides administration, mice were randomly divided into treatment and control groups comprising six individuals. A total of 10 µL of 1 mg/mL peptide solution suspended in saline or fibrils solution suspended in PBS at the same concentration, was applied to each wound. Control groups received saline only. The wounds were covered with transparent Tegaderm film and an adhesive plaster was wrapped around the mouse torso. During the first week of the experiment, the wounds were treated with the peptide daily for five consecutive days along with replacement of the dressing. During the second week of the experiment, the dressing was replaced every other day with no further stimulation. For fibrils the solution was administered once after wounding and the dressing was replaced every two days. At the beginning of the third week, the dressing was removed. To measure the wound area, a ruler was placed next to the injury site, and the wound was photographed. Wound areas were calculated using ImageJ software.

[2] = Peptide stability in human plasma (TCA assay); format: in vitro ADME; conditions: human plasma (EDTA), 37 °C, 300 rpm, TCA 3% precipitation, RP-HPLC UV 223 nm, peak area relative to 0 min, at least triplicates, read-out: peptide loss in human plasma relative to the initial concentration
Method: Peptide stability tests were performed according to a TCA stability assay based on the method used by Nguyen et al.. Peptides were dissolved in water, mixed with human plasma* to a final concentration of 1.0 mg/mL, and incubated at 37 °C with agitation (300 rpm, Thermomixer, Eppendorf AG, Hamburg, Germany). After 0, 1, 2, 3, 6 and 24 h, 80 μL of the solution was taken and mixed with 15% TCA to obtain a final concentration of 3% (v/v). The samples were incubated in ice for 10 min and centrifuged for 10 min (12,000 rpm, Microfuge 16, Beckman Coulter, Brea, CA, USA). Supernatants were analyzed by RP-HPLC on column using a linear gradient of acetonitrile (5–100% over 15 min) with detection at 223 nm. Peptides were quantified by their peak areas relative to the initial peak areas (0 min). All stability tests were performed at least in triplicates. As control samples peptides dissolved only in water under the same conditions were used. To additionally assess the changes in the incubated samples (peptide degradation) mass spectrometry analysis was used. LC-MS experiments were performed using ESI-IT-TOF (Shimadzu, Kyoto, Japan).
* Blood was collected from healthy anonymous donors and EDTA was then used as an anticoagulant. The procedure was approved by the Independent Bioethics Commission for Research of the Medical University of Gdańsk (NKBBN/387/2014).

dorsal skin wounds [3] = assay: Histological analysis of healed skin (Masson's trichrome); format: in vivo, BALB/c female mice; conditions: skin sampled day 18 after injury
Method: Mice were euthanized on day 18 after the injury. Skin from their backs was sampled and stored in formalin. Samples were then embedded in paraffin, cut into 5 µm sections and stained with Masson’s trichrome staining (light green for control and FC-GHK samples and aniline blue for the FC peptide and both fibrillated peptides). Stained sections were evaluated using a light microscope.

[4] = Circular dichroism over incubation; format: physicochemical; conditions: 1.0 mg/mL in PBS pH 7.4, 37 °C with agitation, up to 14 days; centrifuged clear solution, far-UV 195-250 nm
Method: Circular dichroism spectra were recorded on a Jasco J-815 spectropolarimeter (Jasco, Victoria, BC, Canada). Far-UV spectra (195–250 nm) were registered for all peptides dissolved in PBS pH 7.4 at a concentration of 1.0 mg/mL and incubated at 37 °C with agitation. Spectra were recorded before and after 1,2, 3, 7, 10 and 14 days of incubation. All spectra were corrected for the buffer signal. The CD spectra were recorded three times, using a 0.2 mm cell.

[5] = Transmission electron microscopy of fibrils; format: physicochemical; conditions: 1.0 mg/mL in PBS pH 7.4, TEM, uranyl acetate stain
Method: All peptides were dissolved in Eppendorf Low Retention Tubes in 1.0 mL of PBS pH 7.4. The concentration of the solutions of peptides was 1.0 mg/mL. The peptides were incubated at 37 °C with constant orbital shaking. Aliquots for the evaluation of the fibrillization process were taken before incubation and after 1, 2, 3, 6, 14, and 21 days or only after 7 days, depending on the experiments.
Peptide samples (5 µL) were applied on a glow-discharged carbon-coated copper grid (400 mesh). After 1 min of adsorption, excess liquid was removed using filter paper, and the samples were stained with 2% (v/v) aqueous uranyl acetate. The samples were examined with a TECNAI SPIRIT BIO TWIN FEI (FEI Company, Hillsboro, OR, USA) at 120 kV, with nominal magnifications between 11,500 and 39,000. The assay was performed for samples before (after dissolution) and after 3 days of incubation.

[6] = non-fibrillated peptide, 1 mg/mL in saline, five daily applications

| SMILES | wound closure rate compared to control (dorsal skin wounds [1]; fibrillated peptide, 10 µL of 1 mg/mL in PBS per wound, administered once, n = 16 wounds) | wound closure and scars of FC-GHK compared with FC and control (dorsal skin wounds [1]; [6]) | wound epithelialization compared with the control (dorsal skin wounds [1]; [6]) | wound state on day 14 post-injury (dorsal skin wounds [1]; [6]) | wound closure compared to the control group (dorsal skin wounds [1]; non-fibrillated peptide, 10 µL of 1 mg/mL in saline per wound, five daily applications, n = 12 wounds) | metabolised at 24 h, 1 mg/mL [2] | muscle cell growth in wound area (histology) (dorsal skin wounds [3]; fibrillated peptide) | muscle cell layer in restored tissue (histology) (dorsal skin wounds [3]; non-fibrillated peptide) | secondary structure by CD [4] | fibril thickness (TEM) [5] |
| --- | --- | --- | --- | --- | --- | --- | --- | --- | --- | --- |
| CC[C@H](C)[C@H](NC(=O)CNC(=O)[C@H](C)NC(=O)[C@H](CCC(N)=O)NC(=O)CNC(=O)CNC(=O)CNC(=O)[C@@H](NC(=O)[C@@H]1CCCN1C(=O)[C@H](C)NC(=O)[C@H](C)NC(=O)CNC(=O)CNC(=O)CNC(=O)[C@H](CCCCN)NC(=O)[C@H](Cc1c[nH]cn1)NC(=O)CNC(C)=O)C(C)C)C(=O)N[C@H](C(=O)N[C@H](C(N)=O)C(C)C)C(C)C [FC-GHK] (Ac-GHKGGGAAPVGGGQAGIVV-NH2) | the difference in wound closure rate could be observed on day 4 post-injury without statistical significance | faster wound closure than for the FC peptide and significantly smaller scars compared to the control group | increased epithelialization on the second day | closed entirely | significantly and consistently accelerated from day 2 till day 14 | 20% | No such cell growth was present | modest reconstruction of the muscle cell layer | disordered structure |  |
| CC[C@H](C)[C@H](NC(=O)CNC(=O)[C@H](C)NC(=O)[C@H](CCC(N)=O)NC(=O)CNC(=O)CNC(=O)CNC(=O)[C@@H](NC(=O)[C@@H]1CCCN1C(=O)[C@H](C)NC(=O)[C@H](C)NC(=O)CNC(=O)CNC(=O)CNC(=O)[C@H](CCCCN)NC(=O)[C@H](Cc1c[nH]cn1)NC(=O)CNC(=O)[C@H](CCCCN)NC(C)=O)C(C)C)C(=O)N[C@H](C(=O)N[C@H](C(N)=O)C(C)C)C(C)C [FC-KGHK] (Ac-KGHKGGGAAPVGGGQAGIVV-NH2) |  |  |  |  |  | 20% |  |  | disordered structure | 10–12 nm |
